Laboratory results: ChEMBL document CHEMBL1125730, “Dual inhibitors of thromboxane A2 synthase and 5-lipoxygenase with scavenging activity of active oxygen species. Synthesis of a novel series of (3-pyridylmethyl)benzoquinone derivatives” (J Med Chem, 1991)

How the values were obtained:
physchem = conditions: octanol/water
Description: Partition coefficient (logP)

[1] = molecular target: T1, Thromboxane-A synthase (Rattus norvegicus) (UniProt P49430); assay: Inhibition of rat thromboxane A2 synthase evaluated as percent inhibition of thromboxane B2 formation after 24 hr of administration at 10 mg/kg.; assay type: functional, organism-based; set-up: dose 10 mg/kg
T1 sequence (whole entry): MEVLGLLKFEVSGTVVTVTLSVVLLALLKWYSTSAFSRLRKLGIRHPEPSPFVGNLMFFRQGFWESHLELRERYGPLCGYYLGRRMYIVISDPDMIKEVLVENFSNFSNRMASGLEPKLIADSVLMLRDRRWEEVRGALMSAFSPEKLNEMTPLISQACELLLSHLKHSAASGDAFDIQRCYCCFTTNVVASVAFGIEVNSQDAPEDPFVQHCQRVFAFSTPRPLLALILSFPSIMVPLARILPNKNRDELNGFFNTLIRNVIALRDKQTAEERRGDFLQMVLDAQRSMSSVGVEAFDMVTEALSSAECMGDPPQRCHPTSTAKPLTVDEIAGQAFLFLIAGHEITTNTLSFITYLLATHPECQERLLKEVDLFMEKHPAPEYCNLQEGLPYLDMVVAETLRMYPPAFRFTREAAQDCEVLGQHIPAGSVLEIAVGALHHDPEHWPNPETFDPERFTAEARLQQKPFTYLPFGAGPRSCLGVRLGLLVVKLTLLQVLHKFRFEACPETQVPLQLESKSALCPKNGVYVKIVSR

[2] = molecular target: T2, Polyunsaturated fatty acid 5-lipoxygenase (Rattus norvegicus, UniProt P12527)
T2 sequence (P12527 whole entry): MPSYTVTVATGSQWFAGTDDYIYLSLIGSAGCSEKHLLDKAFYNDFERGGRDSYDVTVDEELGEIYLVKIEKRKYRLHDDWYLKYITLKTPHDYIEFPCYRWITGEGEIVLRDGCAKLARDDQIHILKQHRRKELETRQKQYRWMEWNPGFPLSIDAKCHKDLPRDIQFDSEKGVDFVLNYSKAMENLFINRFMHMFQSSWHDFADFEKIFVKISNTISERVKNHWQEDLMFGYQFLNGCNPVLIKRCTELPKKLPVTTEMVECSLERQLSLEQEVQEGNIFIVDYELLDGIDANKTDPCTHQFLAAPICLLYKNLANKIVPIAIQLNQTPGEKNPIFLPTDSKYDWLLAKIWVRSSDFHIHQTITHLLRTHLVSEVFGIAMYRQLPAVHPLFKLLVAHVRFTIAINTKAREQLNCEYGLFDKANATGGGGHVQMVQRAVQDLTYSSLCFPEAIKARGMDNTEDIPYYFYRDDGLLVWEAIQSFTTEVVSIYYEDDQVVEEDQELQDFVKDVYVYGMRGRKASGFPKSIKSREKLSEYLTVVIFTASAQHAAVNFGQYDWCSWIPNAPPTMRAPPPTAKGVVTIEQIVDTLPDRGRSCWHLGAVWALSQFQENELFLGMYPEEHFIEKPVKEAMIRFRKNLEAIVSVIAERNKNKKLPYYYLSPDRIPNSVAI

RBL-1 = assay: cells; conditions: Rattus norvegicus
Rattus norvegicus [3] = assay: Protective effect was evaluated by measuring the urinary albumin by peroral administering 10 mg/kg per day for four weeks in 8 rats; assay type: functional, Urine; conditions: route oral
Rattus norvegicus [4] = assay: Protective effect was evaluated by measuring the urinary total protein by peroral administering 10 mg/kg per day for four weeks in 8 rats; assay type: functional, Urine; conditions: route oral
Rattus norvegicus [5] = assay: Compound was evaluated […] for percent inhibition of lipid peroxidation in rat brain homogenates at 10e-6 M; assay type: functional
Equus caballus = organism: Equus caballus; assay: The concentration required to reduce by 50% the amount of LTB4 formed by RBL-1 cells; assay type: functional, organism-based
Rattus norvegicus [6] = assay: Protective effect was evaluated by measuring the urinary total protein by peroral administering 100 mg/kg per day for four weeks in adriamycin induced proteinuria in 7 rats for four weeks.; assay type: functional, Urine; conditions: route oral
Rattus norvegicus [7] = assay: Protective effect was evaluated by measuring the urinary albumin by peroral administering 100 mg/kg per day for four weeks in adriamycin induced proteinuria 7 rats for four weeks.; assay type: functional, Urine; conditions: route oral
[8] = molecular target: T3, Thromboxane-A synthase (Homo sapiens) (UniProt P24557); assay: Inhibitory activity of compound against thromboxane A2 synthase evaluated as percent inhibition of thromboxane B2 formation after 24 hr of administration of 10 mg/kg of compound in rat; assay type: functional, organism-based; set-up: dose 10 mg/kg
T3 sequence (whole entry): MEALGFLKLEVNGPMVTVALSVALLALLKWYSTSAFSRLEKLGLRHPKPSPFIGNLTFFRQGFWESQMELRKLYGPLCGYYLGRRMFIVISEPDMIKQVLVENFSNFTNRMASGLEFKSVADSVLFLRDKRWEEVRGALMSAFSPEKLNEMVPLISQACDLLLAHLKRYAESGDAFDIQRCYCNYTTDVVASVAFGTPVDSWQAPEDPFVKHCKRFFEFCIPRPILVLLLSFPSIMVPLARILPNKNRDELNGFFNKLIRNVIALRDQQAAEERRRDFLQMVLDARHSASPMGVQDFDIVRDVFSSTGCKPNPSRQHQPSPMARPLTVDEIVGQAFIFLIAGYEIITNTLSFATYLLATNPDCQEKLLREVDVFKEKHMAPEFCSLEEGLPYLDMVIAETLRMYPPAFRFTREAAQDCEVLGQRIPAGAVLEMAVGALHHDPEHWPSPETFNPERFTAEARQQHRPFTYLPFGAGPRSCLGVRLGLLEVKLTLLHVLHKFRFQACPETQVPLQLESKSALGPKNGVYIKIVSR

[9] = molecular target: T3, Thromboxane-A synthase (Homo sapiens); assay: Inhibitory activity of compound against thromboxane A2 synthase evaluated as percent inhibition of thromboxane B2 formed by incubating PGH-2 with horse platelet microsomes; assay type: functional; conditions: Equus caballus; target entry is the homologue from another species; concentration not given here
Rattus norvegicus [10] = assay: Protective effect was evaluated by measuring the urinary total protein by peroral administering 100 mg/kg per day for four weeks in 7 rats for four weeks.; assay type: functional, Urine; conditions: route oral

| logP (physchem) | inhibition [1] [%] | IC50 [2] [µM] | SMILES | other results |
| --- | --- | --- | --- | --- |
| 0.85 | 64 | 60 | CC1=C(C)C(=O)C(C(CCCCC(=O)O)c2cccnc2)=C(C)C1=O (centres undefined) | – |
| 3.28 | 80 | 0.008 | CCOC(=O)/C=C/C1=C(C)C(=O)C(Cc2cccnc2)=C(C)C1=O | – |
| 5.05 | – | – | CCCCC/C=C(/C1=C(C)C(=O)C(C)=C(C)C1=O)c1cccnc1 | IC50 (RBL-1): 0.26 µM |
| 1.05 | 91 | 7.2 | CC1=C(C)C(=O)C(/C(=C/CCCCC(=O)O)c2cccnc2)=C(C)C1=O | – |
| 2.55 | 86 | 0.062 | CC1=C(C)C(=O)C(Cc2cccnc2)=C(C)C1=O | Albumin (Rattus norvegicus [3]): 39 mg 100g-1 24hr-1; Total protein (Rattus norvegicus [4]): 60 mg 100g-1 24hr-1 |
| 0.35 | – | – | CC1=C(C)C(=O)C(C(CCCC(=O)O)c2cccnc2)=C(C)C1=O (centres undefined) | Inhibition (Rattus norvegicus [5]): 37%; IC50 (Equus caballus): 10 µM |
| – | – | – | CCCCCCCCCCCCCCCCCCOC1=C(O)[C@@H](C(O)CO)OC1=O (some centres undefined) | Total protein (Rattus norvegicus [6]): 122 mg 100g-1 24hr-1; Albumin (Rattus norvegicus [7]): 70 mg 100g-1 24hr-1 |
| -0.95 | 90 | 8.8 | CC1=C(/C=C/C(=O)O)C(=O)C(C)=C(Cc2cccnc2)C1=O | – |
| – | – | 0.09 | CC1=C(C)C(=O)C(CCCCC#CCCCC#CCO)=C(C)C1=O [DOCEBENONE] | Total protein (Rattus norvegicus [6]): 95 mg 100g-1 24hr-1; Albumin (Rattus norvegicus [7]): 49 mg 100g-1 24hr-1 |
| 4.08 | – | 0.25 | CC(=O)OCCCCC(C1=C(C)C(=O)C(C)=C(C)C1=O)c1cccnc1 (centres undefined) | inhibition [8]: 37% |
| 5.05 | – | – | CCCCC/C=C(\C1=C(C)C(=O)C(C)=C(C)C1=O)c1cccnc1 | IC50 (Equus caballus): 0.22 µM |
| 5.35 | 70 | 0.073 | CCCCCCC(C1=C(C)C(=O)C(C)=C(C)C1=O)c1cccnc1 (centres undefined) | – |
| 0.61 | 74 | – | COC1=C(OC)C(=O)C(Cc2cccnc2)=C(C)C1=O | – |
| 3.19 | 40 | 0.1 | CC1=C(C)C(=O)C(C(CCCCO)c2cccnc2)=C(C)C1=O (centres undefined) | – |
| 2.08 | 19 | 100 | CC1=C(C)C(=O)C(C(c2cccnc2)c2cccc(/C=C(\C)C(=O)O)c2)=C(C)C1=O (centres undefined) | – |
| 2.85 | 90 | 9.5 | CC1=C(C)C(=O)C(C(C)c2cccnc2)=C(C)C1=O (centres undefined) | inhibition [9]: 89% |
| 1.35 | 90 | 9.3 | CC1=C(C)C(=O)C(C(CCCCCC(=O)O)c2cccnc2)=C(C)C1=O (centres undefined) | – |
| -0.65 | 73 | 8.7 | CC1=C(/C=C(\C)C(=O)O)C(=O)C(C)=C(Cc2cccnc2)C1=O | – |
| 3.35 | 75 | 0.66 | CCC(C1=C(C)C(=O)C(C)=C(C)C1=O)c1cccnc1 (centres undefined) | – |
| 1.85 | 97 | 7 | CC1=C(C)C(=O)C(C(CCCCCCC(=O)O)c2cccnc2)=C(C)C1=O (centres undefined) | – |
| 3.69 | – | 0.1 | CC1=C(C)C(=O)C(C(CCCCCO)c2cccnc2)=C(C)C1=O (centres undefined) | inhibition [8]: 72% |
| 4.35 | 97 | 0.83 | CCCCC(C1=C(C)C(=O)C(C)=C(C)C1=O)c1cccnc1 (centres undefined) | – |
| 2.08 | – | 100 | CC1=C(C)C(=O)C(C(c2cccnc2)c2cccc(CCC(=O)O)c2)=C(C)C1=O (centres undefined) | – |
| -0.65 | 86 | 5 | CC1=C(CCC(=O)O)C(=O)C(C)=C(Cc2cccnc2)C1=O | – |
| – | 90 | – | O=C(O)CCCC/C=C(\c1ccccc1)c1cccnc1 [(E)-ISBOGREL] | Albumin (Rattus norvegicus [7]): 75 mg 100g-1 24hr-1; Total protein (Rattus norvegicus [10]): 131 mg 100g-1 24hr-1 |
| 2.77 | 92 | 0.082 | CC1=C(Cc2cccnc2)C(=O)c2ccccc2C1=O | – |
| 4.58 | – | 0.087 | CC(=O)OCCCCCC(C1=C(C)C(=O)C(C)=C(C)C1=O)c1cccnc1 (centres undefined) | inhibition [8]: 84% |
